Calls of active or inactive are those of the source.

For one experiment, the target named is Cytochrome P450 2C19 (Homo sapiens, UniProt P33261). Briefly: Cytochrome panel assay with activity outcomes. Panel member name: p450-cyp2c19 Compounds with AC50 equal or less than 10 uM are considered active. Format: functional. The note with it: read-out: AC50.
The target of another experiment is Cytochrome P450 3A4 (Homo sapiens, UniProt P08684).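 Also: CYP3A4 tested as one member of a cytochrome P450 panel screen.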
For the next experiment, the target named is Cytochrome P450 2C9 (Homo sapiens, UniProt P11712).
Experiment [1] concerns the target 72 kDa type IV collagenase (Homo sapiens, UniProt P08253). The experiment can be described thus: Dose Response validation of uHTS RPN11 inhibitor hits using a MMP-2 Fluorescence assay. It is filed as functional.
For experiment [2], the target named is 26S proteasome non-ATPase regulatory subunit 14 (Homo sapiens, UniProt O00487). The experiment can be described thus: inhibition of proteasome subunit RPN11 – biochemical, fluorescence polarization, uHTS hits, confirmation (AID 602368). Format: functional. On the technique in general: Polarisation of emitted light reports the rotation of a fluorescent probe.

The target of the next experiment is Prothrombin (Bos taurus, UniProt P00735). Briefly: thrombin protease inhibitors – biochemical, fluorescence polarization, uHTS hits, dose response (AID 602369). It is filed as functional.
Experiment [3] addresses T1, Probable nicotinate-nucleotide adenylyltransferase (Staphylococcus aureus (strain N315), UniProt P65502). Format: functional, Staphylococcus aureus subsp. aureus N315. The note with it: read-out: IC50_Mean.
Experiment [4] in a line: viability of uninfected HEp-2 cells – cell-based, HTS, cytotoxicity control for RSV inhibitor project, dose response (AID 2410). It is filed as functional. The note with it: human respiratory syncytial virus.
The target of experiment [5] is T1, Probable nicotinate-nucleotide adenylyltransferase. Format: functional, Staphylococcus aureus subsp. aureus N315.
The target of experiment [6] is SWI/SNF-related matrix-associated actin-dependent regulator of chromatin subfamily A member 2 (Homo sapiens, UniProt P51531). Briefly: Luminescence-based cell-based high throughput dose response assay to identify activators of the function of SWI/SNF related, matrix associated, actin dependent regulator of chromatin, subfamily a, member 2 (SMARCA2, BRM). It is filed as functional.

The nature of experiment [7]: Counterscreen for activators of the function of SWI/SNF related, matrix associated, actin dependent regulator of chromatin, subfamily a, member 2 (SMARCA2, BRM): Luminescence-based cell-based high throughput dose response assay to identify non-selective compounds using the VP16 reporter assay. It is filed as functional. Background: The purpose of a counterscreen is to sort out artefacts and off-target activity.

Experiment [8] is described as follows: Trypanosoma cruzi growth suppression in host cells – NIH3T3 host cells, beta-gal luminescence, confirmation (AID 2044).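 Also: intracellular parasites grown in NIH/3T3 mouse fibroblasts as host cells; luminescent beta-galactosidase reporter signal from transgenic T. cruzi replicating inside host cells; inhibitors lower the luminescence signal.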 Format: functional, cell-based.
Experiment [9] concerns the target Disintegrin and metalloproteinase domain-containing protein 17 (Homo sapiens, UniProt P78536). Briefly: inhibition of ADAM17 substrate cleavage – biochemical, quenched FRET substrate, counter-screen for ADAM10 exosite inhibitor project, dose response (AID 743253).
A short description of experiment [10]: NIH3T3 cell viability loss – ATP luminescence, mouse fibroblasts, counter-screen, dose response (AID 2010).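 Also: cells exposed to compound for about 90 hours before reading.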 Format: functional, cell-based.
Experiment [11] is described as follows: potency of ADAM10 substrate cleavage blockers – biochemical, QFRET, dose response (AID 743254).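 Also: ADAM10 enzyme with the DM2 quenched FRET peptide as substrate; EDANS fluorescence gain as the protease cuts the substrate; inhibitor potency against ADAM10 proteolytic activity.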
In experiment [12] the target is T2, Adenosylmethionine-8-amino-7-oxononanoate aminotransferase (Mycobacterium tuberculosis, UniProt P9WQ81).
T2 sequence (P9WQ81 whole entry): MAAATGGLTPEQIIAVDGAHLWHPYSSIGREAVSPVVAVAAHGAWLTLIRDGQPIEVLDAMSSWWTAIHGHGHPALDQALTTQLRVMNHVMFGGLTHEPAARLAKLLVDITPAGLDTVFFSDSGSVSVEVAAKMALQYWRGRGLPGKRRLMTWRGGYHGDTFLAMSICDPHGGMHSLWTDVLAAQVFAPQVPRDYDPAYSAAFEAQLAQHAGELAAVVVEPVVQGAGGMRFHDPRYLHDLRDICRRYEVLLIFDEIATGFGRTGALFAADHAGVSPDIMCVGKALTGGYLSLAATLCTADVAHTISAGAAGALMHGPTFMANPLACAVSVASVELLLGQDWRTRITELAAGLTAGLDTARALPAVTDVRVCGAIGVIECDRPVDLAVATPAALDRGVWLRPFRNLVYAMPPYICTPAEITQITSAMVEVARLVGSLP
The experiment can be described thus: Mycobacterium tuberculosis BioA enzyme inhibitor Measured in Biochemical System Using Plate Reader - 2163-02_Inhibitor_Dose_CherryPick_Activity. It is filed as functional, Mycobacterium tuberculosis UT205.

The target in a further experiment is Protein Wnt-3a (Mus musculus, UniProt P27467). Briefly: antagonism of Wnt3a pathway luciferase reporter – Wnt-LIGHT cells, luminescence, selectivity assay for Gli-SUFU antagonist project, dose response (AID 651570).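 Also: Wnt-LIGHT reporter cells stimulated with conditioned medium from Wnt3a-producing cells.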 It is filed as functional. The note with it: read-out: IC50_Mean. Background: Reporter assays use an easily measured gene product as a stand-in for the process of interest.

For another experiment, the target named is Major prion protein (Homo sapiens, UniProt P04156). Format: functional, cell-based.
For experiment [13], the target named is T3, High affinity choline transporter 1 (Homo sapiens, UniProt Q9GZV3).
T3 sequence (Q9GZV3 whole entry): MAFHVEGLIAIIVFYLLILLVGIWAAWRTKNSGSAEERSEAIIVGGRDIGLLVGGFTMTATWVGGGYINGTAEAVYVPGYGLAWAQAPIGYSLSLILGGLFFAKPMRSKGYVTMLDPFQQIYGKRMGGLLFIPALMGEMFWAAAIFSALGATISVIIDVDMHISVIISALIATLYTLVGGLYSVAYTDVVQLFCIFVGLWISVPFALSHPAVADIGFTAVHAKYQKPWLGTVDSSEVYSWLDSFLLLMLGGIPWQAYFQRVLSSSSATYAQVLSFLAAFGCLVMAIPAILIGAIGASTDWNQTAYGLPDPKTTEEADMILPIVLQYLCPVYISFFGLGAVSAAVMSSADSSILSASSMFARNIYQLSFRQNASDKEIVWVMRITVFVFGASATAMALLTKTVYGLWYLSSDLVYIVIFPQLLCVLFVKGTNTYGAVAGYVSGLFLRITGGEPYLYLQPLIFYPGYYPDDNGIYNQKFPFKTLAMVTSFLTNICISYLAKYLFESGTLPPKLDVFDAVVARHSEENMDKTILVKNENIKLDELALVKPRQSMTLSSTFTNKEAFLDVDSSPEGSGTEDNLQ
Briefly: human choline transporter blockers, potency – cell-based, 5-point CRC, membrane potential dye, dose response (AID 504840). Format: functional.

In experiment [14] the target is Induced myeloid leukemia cell differentiation protein Mcl-1 (Homo sapiens, UniProt Q07820). Format: functional.
A further experiment addresses Beta-galactosidase (Escherichia coli, UniProt Q8VNN2). The experiment can be described thus: Dose response counterscreen for EBI2 assay utilizing the enzyme, b-galactosidase. Format: functional.
Experiment [15] concerns the target T4, Beta-lactamase (Pseudomonas aeruginosa, UniProt Q79MP6). The experiment can be described thus: […] counterscreen for selective VIM-2 inhibitors: dose response biochemical high throughput screening assay to identify inhibitors of IMP-1 metallo-beta-lactamase.
The target of experiment [16] is T4, Beta-lactamase. The experiment can be described thus: inhibition of IMP-1 beta-lactamase activity – biochemical, epi-absorbance, selectivity assay for VIM-2 inhibitor project, dose response (AID 1920).
Experiment [17] deals with Beta-lactamase (Salmonella choleraesuis (strain SC-B67), UniProt Q5J463). The experiment can be described thus: Epi-absorbance-based counterscreen for selective VIM-2 inhibitors: dose response biochemical high throughput screening assay to identify inhibitors of TEM-1 serine-beta-lactamase.
Experiment [18] can be described thus: non-specific 3'UTR reporter inhibition in Clone20-Shn3RL – cell-based, Renilla luciferase, cherry-picked, counter-screen for Shn3 inhibitor project, dose response (AID 624133). It is filed as functional.
A short description of experiment [19]: reduction of Shn3 3'UTR-driven luciferase in osteoblasts – cell-based, Clone20 osteoblasts, firefly luciferase, cherry-picked, dose response (AID 624132).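 Also: firefly luciferase luminescence from reporter carrying the Shn3 3'UTR in osteoblasts.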 It is filed as functional.
A short description of experiment [20]: loss of viability in HepG2 cells – cell-based, CellTiter-Glo, cherry-picked, cytotoxicity control for Shn3 inhibitor project, dose response (AID 624134). It is filed as functional.
The target of experiment [21] is Protein-tyrosine kinase 2-beta (Homo sapiens, UniProt Q14289).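 Also: potency of inhibitors of PYK2 kinase phosphorylation of poly-GT substrate.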

With `Cc1cc(/C=C2\SC(=S)NC2=O)c(C)n1C`, the AC50 was 39.8 µM (inconclusive) at Cytochrome P450 2C19, 25.1 µM (inconclusive) on Cytochrome P450 3A4 and 1.26 µM (inconclusive) at Cytochrome P450 2C9. Moreover, the IC50 was 15.2 µM (active) in experiment [1], 16.5 µM (active) in [2] and 19.4 µM (active) at Prothrombin.

For `Cc1ccc([N+](=O)[O-])cc1S(=O)(=O)Nc1cccc(-c2ccc(N3CCCC3)nn2)c1`, the IC50 is 39.2 µM (active) in [3] and 17.7 µM (active) in experiment [5]. In addition, the CC50 in experiment [4] was 23 µM (active).

Turning to `COC(=O)Nc1ccc(OCc2ccccc2)cc1`, the EC50 in experiment [6] and in [7] was > 91.2 µM (inactive) in each case.

As to `CC(C)(C)OC(=O)NCCCC[C@H](NC(=O)c1[nH]cnc1C(=O)NC(c1ccccc1)c1ccccc1)C(=O)OC(C)(C)C`, the EC50 in [8] was 3.48 µM (active); in experiment [10], > 60 µM (not active). Further, the IC50 in experiment [9] was > 69.5 µM (inactive); in [11], 10.6 µM (inactive).

On to `O=C(C[C@@H]1C[C@@H]2c3cc(NC(=O)c4cccnc4)ccc3O[C@@H]2[C@@H](CO)O1)NCc1cccc(F)c1`, for which the AC50 in [12] was 5.98 µM (active).

On to `CCOC(=O)c1c(NC(=O)COc2ncnc3ccccc23)sc(C(C)=O)c1C`, for which, at Protein Wnt-3a, the IC50 is 6.86 µM (active).

As to `Cc1csc(NC(=O)CSc2nc(C(C)C)nc3ccccc23)n1`, the IC50 was 2.05 µM (active) at Major prion protein, 7.94 µM (active) in experiment [13] and 69.1 µM (inactive) in “cells”.

Turning to `COc1ccc(C2=NN(c3nc(-c4ccccc4)c(CC(=O)O)s3)C(c3ccco3)C2)cc1` (configuration not stated), the IC50 in experiment [14] was 6.5 µM (active); in experiment [3], 18.5 µM (active); in experiment [5] it was 8.39 µM (active).

On to `O=C(c1cc2ccccc2o1)N1CCN(c2ccccc2Cl)CC1`, for which the IC50 on Beta-galactosidase is > 80 µM (inactive).

`CSC[C@H](NC(=O)COc1cc2c(c3oc(=O)c(C)c(C)c13)CCC(C)(C)O2)C(=O)O`: the IC50 on Beta-lactamase [15], at Beta-lactamase [16] and at Beta-lactamase [17] was > 59.6 µM (inactive) in each case.

On to `O=C(CSc1nc2ccccc2s1)N/N=C/c1ccco1`, for which the EC50 in experiment [6] and in [7] was > 91.2 µM (inactive) in each case.

Consider `S=c1[nH]nc(-c2ccccc2)n1CC1CCCO1` (configuration not stated), for which the IC50 at Beta-lactamase [15], on Beta-lactamase [16] and on Beta-lactamase [17] was > 59.6 µM (inactive) in each case.

Consider `O=C(Nc1ccc2c(c1)[C@H]1C[C@@H](CC(=O)N3CCc4ccccc4C3)O[C@H](CO)[C@H]1O2)c1cccnc1`, for which the AC50 in [12] was 6.24 µM (active).

Take `CCC1CO/C(=C(\C(Cl)=C(Cl)Cl)[N+](=O)[O-])N1` (configuration not stated): the IC50 in experiment [9] was 27.9 µM (inactive); in [11], 14.9 µM (inactive).

Consider `Nc1nc2ccc(Cl)cc2cc1C(=O)NCc1ccccc1Br`, for which the IC50 at Major prion protein was 7.35 µM (active); in the experiment “cells”, 46.3 µM (inactive).

Turning to `C=CCOc1nc2c(c(=O)n(C)c(=O)n2C)n1Cc1ccc(Cl)cc1Cl`, the AC50 in experiment [18] is 7.4 µM (active); in experiment [19], 2.15 µM (active). Further, the IC50 on Protein Wnt-3a was 29.7 µM (inactive).

As for `O=C(c1ccc2c(=O)n(Cc3ccco3)c(=S)[nH]c2c1)N1CCN(Cc2ccccc2)CC1`, the values for the IC50 in [3] and in experiment [5] were 57.7 µM (active) and 23.5 µM (active), respectively.

Turning to `CCc1nc(N)nc(N)c1-c1ccc(N(C)Cc2ccccc2)c([N+](=O)[O-])c1`, the AC50 in experiment [19] and in experiment [20] was < 0.26 µM (active) each time. Moreover, on Protein Wnt-3a, the IC50 was 5.28 µM (active).

As to `C=C(c1cccc2ccccc12)P(=O)(O)O`, the IC50 was 27 µM (not active) in experiment [21], > 59.6 µM (inactive) on Beta-lactamase [15], > 59.6 µM (inactive) on Beta-lactamase [16] and > 59.6 µM (inactive) at Beta-lactamase [17].

Regarding `O=C(c1ccc2ccccc2c1)N1CCN(c2ccc(C(F)(F)F)cn2)CC1`, at Beta-galactosidase, the IC50 is > 80 µM (inactive).

Turning to `Cc1cccc(C(=O)NC2CCN(CC(=O)Nc3ccccc3Cl)CC2)c1`, the AC50 in [12] was 1.04 µM (active).

As to `CCC1NC(=O)c2cc3ccccc3cc2-n2c1nc1cc(C)cc(C)c1c2=O` (configuration not stated), the IC50 at Beta-galactosidase was > 80 µM (inactive).

One may read the AC50 as the concentration at which the activity in the assay is half-maximal. A word on the CC50: it is the concentration that lowers cell viability or growth by half. As a reminder, the EC50 is the midpoint of the concentration-response curve.

(Values after ChEMBL document CHEMBL1201862, “PubChem BioAssay data set” (2004).)
